Data: patent US20210127673A1, “HERBICIDES” (SYNGENTA PARTICIPATIONS AG, priority 2016, published 2021)

Key:
Assay type in all cases: in vivo
[1] = test system: Echinochloa crus-galli (ECHCG); test: Pre-emergence herbicidal activity, Echinochloa crus-galli; design: key: 5=total damage to plant; 0=no damage to plant; settings: 1000 g/ha, evaluated after 13 days, Test 1b
Procedure, shortened: (§1)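 Damage is rated on a 0–5 scale (0 = no damage, 5 = total damage) 13 days after treatment. Pots of sown seed are sprayed one day after sowing with an aqueous solution from acetone/water (50:50) with 0.5% Tween 20, then kept under controlled glasshouse conditions.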

Lolium perenne (LOLPE) [2] = test: Pre-emergence herbicidal activity, Lolium perenne; design: key: 5=total damage to plant; 0=no damage to plant; settings: 1000 g/ha, evaluated after 13 days, Test 1b
Procedure, shortened: as §1

Zea Mays (ZEAMX) [3] = test: Pre-emergence herbicidal activity, Zea Mays; design: key: 5=total damage to plant; 0=no damage to plant; settings: 1000 g/ha, evaluated after 13 days, Test 1b
Experimental: (§2) Seeds of a variety of test species were sown in standard soil in pots: Triticum aestivium (TRZAW), Avena fatua (AVEFA), Alopecurus myosuroides (ALOMY), Echinochloa crus-galli (ECHCG), Lolium perenne (LOLPE), Zea Mays (ZEAMX), Abutilon theophrasti (ABUTH), Amaranthus retroflexus (AMARE) and Setaria faberi (SETFA). After cultivation for one day (pre-emergence) under controlled conditions in a glasshouse (at 24/16° C., day/night; 14 hours light; 65% humidity), the plants were sprayed with an aqueous spray solution derived from the formulation of the technical active ingredient in acetone/water (50:50) solution containing 0.5% Tween 20 (polyoxyethelyene sorbitan monolaurate, CAS RN 9005-64-5). The test plants were then grown in a glasshouse under controlled conditions (at 24/16°, day/night; 14 hours light; 65% humidity) and watered twice daily. After 13 days, the test was evaluated (5=total damage to plant; 0=no damage to plant).

[4] = test system: Abutilon theophrasti (ABUTH); test: Pre-emergence herbicidal activity, Abutilon theophrasti; design: key: 5=total damage to plant; 0=no damage to plant; settings: 1000 g/ha, evaluated after 13 days, Test 1b
Experimental: as §2

[5] = test system: Amaranthus retroflexus (AMARE); test: Pre-emergence herbicidal activity, Amaranthus retroflexus; design: key: 5=total damage to plant; 0=no damage to plant; settings: 1000 g/ha, evaluated after 13 days, Test 1b
Experimental: as §2

Setaria faberi (SETFA) [6] = test: Pre-emergence herbicidal activity, Setaria faberi; design: key: 5=total damage to plant; 0=no damage to plant; settings: 1000 g/ha, evaluated after 13 days, Test 1b
Procedure, shortened: as §1

[7] = test system: Echinochloa crus-galli (ECHCG); test: Post-emergence herbicidal activity, Echinochloa crus-galli; settings: 1000 g/ha, evaluated after 13 days, Test 2b
Procedure, shortened: (§3)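 Scoring runs 0 (no damage) to 5 (total damage), assessed 13 days after treatment. Seedlings 8 days post-sowing received an aqueous spray from acetone/water 50:50 with 0.5% Tween 20, then were kept at 24/16 °C, 14 h light, 65% humidity and watered twice daily.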

Lolium perenne (LOLPE) [8] = test: Post-emergence herbicidal activity, Lolium perenne; settings: 1000 g/ha, evaluated after 13 days, Test 2b
Procedure, shortened: as §3

Zea Mays (ZEAMX) [9] = test: Post-emergence herbicidal activity, Zea Mays; design: key: 5=total damage to plant; 0=no damage to plant; settings: 1000 g/ha, evaluated after 13 days, Test 2b
Experimental: (§4) Seeds of a variety of test species were sown in standard soil in pots: Triticum aestivium (TRZAW), Avena fatua (AVEFA), Alopecurus myosuroides (ALOMY), Echinochloa crus-galli (ECHCG), Lolium perenne (LOLPE), Zea Mays (ZEAMX), Abutilon theophrasti (ABUTH), Amaranthus retroflexus (AMARE) and Setaria faberi (SETFA). After 8 days cultivation (post-emergence) under controlled conditions in a glasshouse (at 24/16° C., day/night; 14 hours light; 65% humidity), the plants were sprayed with an aqueous spray solution derived from the formulation of the technical active ingredient in acetone/water (50:50) solution containing 0.5% Tween 20 (polyoxyethelyene sorbitan monolaurate, CAS RN 9005-64-5). The test plants were then grown in a glasshouse under controlled conditions (at 24/16° C., day/night; 14 hours light; 65% humidity) and watered twice daily. After 13 days, the test was evaluated (5=total damage to plant; 0=no damage to plant).

[10] = test system: Abutilon theophrasti (ABUTH); test: Post-emergence herbicidal activity, Abutilon theophrasti; design: key: 5=total damage to plant; 0=no damage to plant; settings: 1000 g/ha, evaluated after 13 days, Test 2b
Experimental: as §4

[11] = test system: Amaranthus retroflexus (AMARE); test: Post-emergence herbicidal activity, Amaranthus retroflexus; design: key: 5=total damage to plant; 0=no damage to plant; settings: 1000 g/ha, evaluated after 13 days, Test 2b
Experimental: as §4

Setaria faberi (SETFA) [12] = test: Post-emergence herbicidal activity, Setaria faberi; design: key: 5=total damage to plant; 0=no damage to plant; settings: 1000 g/ha, evaluated after 13 days, Test 2b
Procedure, shortened: as §3

| SMILES | ECHCG damage score (0-5) [1] | LOLPE damage score (0-5) (Lolium perenne (LOLPE) [2]) | ZEAMX damage score (0-5) (Zea Mays (ZEAMX) [3]) | ABUTH damage score (0-5) [4] | AMARE damage score (0-5) [5] | SETFA damage score (0-5) (Setaria faberi (SETFA) [6]) | ECHCG damage score (0-5) [7] | LOLPE damage score (0-5) (Lolium perenne (LOLPE) [8]) | ZEAMX damage score (0-5) (Zea Mays (ZEAMX) [9]) | ABUTH damage score (0-5) [10] | AMARE damage score (0-5) [11] | SETFA damage score (0-5) (Setaria faberi (SETFA) [12]) |
| --- | --- | --- | --- | --- | --- | --- | --- | --- | --- | --- | --- | --- |
| Cc1nc(-c2cncc(F)c2)ccc1NC(=O)OC(C)(C)C [Compound B19] | 4 | 3 | 5 | 1 | 1 | 4 | 4 | 4 | 5 | 1 | 2 | 5 |
| Cc1nc(-c2cncc(OC(F)F)c2)ccc1NC(=O)OC(C)(C)C [Compound B13] | 2 | 1 | 2 | 0 | 0 | 3 | 3 | 2 | 5 | 0 | 1 | 5 |
| CC(C)(C)OC(=O)Nc1ccc(-c2cncnc2)nc1C(F)(F)F [Compound B32, tert-butyl N-[6-pyrimidin-5-yl-2-(trifluoromethyl)-3-pyridyl]carbamate] | 3 | 1 | 5 | 0 | 0 | 5 | 4 | 2 | 5 | 0 | 0 | 5 |
| Cc1nc(-c2cncc(C(F)(F)F)c2)ccc1NC(=O)OC(C)(C)C [Compound B24] | 0 | 0 | 1 | 1 | 1 | 1 | 2 | 1 | 2 | 1 | 2 | 2 |
| CN(C(=O)OC(C)(C)C)c1ccc(-c2cncnc2)nc1C(F)(F)F [Compound B31] | 3 | 1 | 4 | 0 | 1 | 5 | 4 | 2 | 5 | 1 | 1 | 5 |
| CC(C)(C)OC(=O)Nc1ccc(-c2cncnc2)nc1Cl [Compound B27] | 4 | 1 | 2 | 0 | 0 | 4 | 4 | 2 | 3 | 2 | 2 | 5 |
